Measured values as given in US20070243215A1, “Adjuvant for Dna Vaccines” (priority 2004, published 2007).

Tested on: N202/1A tumor cells
Test: Serum transfer and tumor cell challenge
Type: in vivo
Conditions: 150 μL pooled serum from treated donor mice; challenge 24 h later subcutaneously with 10^5 N202/1A tumor cells
Protocol: Animals were treated as in Example 1 for each of the following groups: (1) Immunized with pCMV-ECD-TM, not treated with IRM (HER-2/neu); (2) Immunized with pCMV-ECD-TM, treated with IRM2 (IRM+HER-2/neu); or (3) untreated (Control). Two weeks after the immunization period was completed, sera were harvested from the animals and pooled among animals receiving the same treatment.
150 μL of pooled serum was injected into eight-week old animals (5 animals/treatment serum). Twenty-four hours after administration of the serum, each mouse was challenged with subcutaneously with 10^5 N202/1A tumor cells and monitored to register the development of tumors.

CC(C)Cn1cnc2c(N)nc3ccccc3c21 [IRM2, 1-(2-methylpropyl)-1H-imidazo[4,5-c]quinolin-4-amine]
percentage of recipient mice remaining tumor free (protection against tumor development): An even greater percentage
